Tests used:
hMSC cells = test: total number of hMSC cells (CaSy cell counter) after cryopreservation, thawing and two weeks of cultivation; assay type: cell-based, human; conditions: Example 1, cryopreservation medium in α-MEM
Description: FIG. 1 represents the total number of hMSC cells measured using CaSy cell counter (OMNI Life Science GmbH) after two weeks of cultivation. The data are shown as averages and the standard deviation is shown as an error bar.
Mesenchymal stem cell cultures were cryopreserved. The method of cryopreservation consists of the addition of a cryopreservation medium to the sample and the subsequent […] cryopreservation through a slow freeze at a rate of 1° C./min, for preservation of the sample at low temperatures (−80 C to −196C). The cryopreserved stem cell culture is revived after preservation by thawing in a water bath at 37° C. for 2 minutes and the cryopreservation medium is subsequently washed away from the cellular suspension by centrifugation. The cells are then seeded in a cultivation bottle and cultivated for two weeks.
For cryopreservation, 4 different combinations of cryoprotective medium containing hyaluronic acid with MW 1,500,000 g/mol in two concentrations of 0.1 and 0.2% (w/v) with an addition of 5 or 3% DMSO (v/v) dissolved in a standard α-MEM medium were used. The composition containing 5, 3 or 10% (v/v) DMSO in the medium served as a cryopreservation control.
The mesenchymal stem cells hMSC cultures were cryopreserved. […]

stem cells = conditions: room temperature; Pal et al., 2012; Tunçer et al., 2018; cited from earlier work

C[S+](C)[O-] [DMSO, dimethyl sulfoxide]
stem cell survival and proliferation efficiency (hMSC cells): lower MSCs survival and proliferation efficiency
concentration range at which an effect on viability, morphology, cell adhesion and differentiation was observed (stem cells): 0.1-1 % (v/v)
